# Data reported in patent publication US11279774B2, “Cyclodextrin dimers, compositions thereof, and uses thereof” (UNDERDOG PHARMACEUTICALS, INC., priority 2019, dated 2022).
# What was measured:
# [1] = Turbidity assay (in vitro solubility assay), 7KC suspension; type: physicochemical; conditions: 7KC vs cholesterol
# Protocol: This single concentration of cyclodextrin is used in order to standardize the test results. To perform the test, the samples are incubated for 30 mins at 37 C, and then absorbance at 350 nm is measured, e.g., using a spectrophotometer plate reader. Relative turbidity is determined by dividing the measured turbidity in the presence of the cyclodextrin to the baseline turbidity without the cyclodextrin. A given cyclodextrin has greater affinity for 7KC than cholesterol if the relative turbidity of the 7KC suspension is lower than the relative turbidity of the cholesterol solution.
# [2] = test system: blood cells (whole blood); assay: Extraction of 7KC and cholesterol from blood cells (ex vivo whole blood, LC-MS/MS); type: cell-based, human; conditions: whole blood incubated 3 hours at 37C; for plasma (serum) cholesterol levels: mass spectrometry
# Protocol: Blood was collected from healthy volunteers by licensed phlebotomists. The test substances or PBS alone (negative control) were added to whole blood at various concentrations and incubated for 3 hours at 37C. Blood was then spun down and serum collected. Serum was frozen and then processed for mass spec.
# Plasma free 7-ketocholesterol was determined by LC-MS/MS following protein precipitation and extraction with acetonitrile and derivatization with the novel quaternary aminooxy (QAO) mass tag reagent, Amplifex Keto Reagent (AB Sciex, Framingham, Mass., USA), which has been used in the analysis of testosterone (Star-Weinstock [et al.], Analytical Chemistry, 84(21):9310-9317. (2012)).
# A 50 μL sample of plasma was spiked with 0.5 ng of the internal standard, d7-7-ketocholesterol (Toronto Research Chemicals, North York, Ontario, CA) prepared at 0.1 ng/μL in ethanol. The sample was treated with 250 μL of acetonitrile, vortex mixed, centrifuged to remove protein at 12,000×g for 10 min. The supernatant was dried under vacuum and then treated with 75 μL of QAO reagent. The working reagent was prepared by mixing 0.7 mL of Amplifex keto reagent with 0.7 mL of Amplifex keto diluent to prepare a 10 mg/mL stock. This stock was then diluted 1:4 with 5% acetic acid in methanol to a final working concentration of 2.5 mg/mL. The mixture was allowed to react at room temperature for two days before LC-MS/MS analysis.
# Standards of 7-ketocholesterol (Toronto Research Chemicals, North York, Ontario, CA) were prepared from 1 to 100 ng/ml in charcoal stripped plasma, SP1070, (Golden West Biological, Temecula, Calif., USA) and in phosphate buffered saline. There was residual 7-ketocholesterol detected in the stripped plasma, so the standards from PBS were used.
# QAO-7-ketocholesterol derivatives were analyzed using a 4000 Q-TRAP hybrid/triple quadrupole linear ion trap mass spectrometer (SCIEX, Framingham, Mass., USA) with electrospray ionization (ESI) in positive mode. The mass spectrometer was interfaced to a Shimadzu (Columbia, Md.) SIL-20AC XR auto-sampler followed by 2 LC-20AD XR LC pumps.
# The instrument was operated with the following settings: source voltage […], GS1 50, GS2 50, CUR 20, TEM 550 and CAD gas medium. Compounds were quantified with multiple reaction monitoring (MRM) and transitions optimized by infusion of pure derivatized compounds as presented in Table 1 below. The bold transitions were used for quantification.
# Separation was achieved using a Gemini 3μ C6-phenyl 110 Å, 100×2 mm column (Phenomenex, Torrance, Calif., USA) kept at 35° C. using a Shimadzu (Columbia, Md.) CTO-20AC column oven. The gradient mobile phase was delivered at a flow rate of 0.5 ml/min, and consisted of two solvents, A: 0.1% formic acid in water, B: 0.1% formic acid in acetonitrile. The initial concentration of solvent B was 20% followed by a linear increase to 60% B in 10 min, then to 95% B in 0.1 min, held for 3 minutes, decreased back to starting 20% B over 0.1 min, and then held for 4 min. […]
# Data were acquired using Analyst 1.6.2 (SCIEX, Framingham, Mass., USA) and analyzed with Multiquant 3.0.1 (SCIEX, Framingham, Mass., USA) software. Sample values were calculated from standard curves generated from the peak area ratio of the analyte to internal standard versus the analyte concentration that was fit to a linear equation with 1/× weighting. The lower limit of quantification was 1 ng/mL with an accuracy of 102% and precision (relative standard deviation) of 8.5%. […]
# blood cells = assay: Hemolysis assay; type: cell-based; conditions: 7.5 mM, three hours at 37 C
# Protocol: For the test solutions, the amount of PBS varied depending on the concentration of cyclodextrin being tested. Samples were tested in triplicate. 50 μL of blood was added to each sample with PBS and cyclodextrin solution (stocks also made in PBS) to achieve the appropriate concentration in a final volume of 200 ul. 5% Triton X-100 was used as the positive control and PBS was the negative control. Once all the samples were mixed the samples were placed into a 37 C incubator for three hours with agitation. The positive control was 100% hemolyzed by Triton X-100 detergent. Once the samples were out of incubation, they were diluted by the same factor in a 96 hydrograde plate and normalized to the positive control absorbance, which is around 1.1. The absorbance is read at 540 nm. The average of the samples was then corrected by subtracting the negative control. The experiment was run three times, and the error bars are the standard error of the mean (Melanga [et al.], Journal of Pharmaceutical Sciences, 105(9):2921-31. (2016)), (Kiss [et al.], European Journal of Pharmaceutical Sciences, 40(4):376-80. (2010)).
substance,measurement,setting,value
"large-face butyl-linked hydroxy-propyl beta-cyclodextrin HP(βCD-BUT-βCD), DS˜3 [DS3 butyl dimer]",specificity for 7KC over cholesterol (turbidity),[1],affinity and specificity for 7KC
same,specificity for 7KC over cholesterol (turbidity),[1]; listed as HPβCD-butyl-DS3,greater specificity for 7KC over cholesterol
"large-face butyl-linked hydroxy-propyl beta-cyclodextrin HP(βCD-BUT-βCD), DS˜8 [DS8 HPβCD dimers]",removal of 7KC from blood cells (plasma free 7KC),[2],removed substantial quantities of 7KC
same,plasma (serum) cholesterol levels,[2],unperturbed
same,plasma (serum) cholesterol levels,[2]; listed as HPβCD dimer,not perturbed
same,plasma (serum) cholesterol levels,[2]; listed as HPβCD dimers (DS˜8),does not appreciably impact plasma cholesterol levels
same,removal of 7KC from blood cells (plasma free 7KC),[2]; listed as HPβCD dimers (DS˜8),much more efficiently than HPβCD monomers
large-face triazole-linked beta-cyclodextrin HP(βCD-Triazole-βCD) DS˜3 [HPβCD -triazole-DS3],specificity for 7KC over cholesterol (turbidity),[1],greater specificity for 7KC over cholesterol
same,specificity for 7KC over cholesterol (turbidity),[1]; listed as Triazole-linked HPβCD dimer (DS˜3),affinity and specificity for 7KC
same,specificity for 7KC over cholesterol (turbidity),[1]; listed as triazole dimers labeled DS 3,greater specificity than DS 6 or DS 7 dimers
"large-face triazole-linked beta-cyclodextrin (βCD-(Triazole)1-BCD, DS=0) [CD-triazole-CD DS 0]",hemolysis,blood cells,~5%
same,specificity for 7KC over cholesterol (turbidity),[1],specificity for 7KC over cholesterol
